The values below come from US9888679B2, “Protection of progenitor cells and regulation of their differentiation” (Proteobioactives Pty Ltd, priority 2007, dated 2018).

One assay concerns ATDC5 cell. Description: Kinetics of ATDC5 cell growth over 13 days. The format is cell-based, murine. To be noted: rhNC4 (batch PBA-1200P) 5 ug/ml or Insulin 10 ug/ml; 20,000 cells per well at Day 0; FIG. 30. On the procedure:
FIG. 30. A bar graph of the kinetics of ATDC5 cell growth induced by rhNC4 (batch PBA-1200P) (5 ug/ml) or Insulin (10 ug/ml) relative to control over 13 days. 20,000 cells per well were seeded at Day 0 (Start) with medium changes every 48 hrs. Insulin treated cultures reached confluence on day 6 and PBA-1200P on day 9. Control cultures also reached confluence on day 9 but in contrast to cultures containing insulin or PBA-1200P ceased to undergo replication.

The next assay concerns human progenitor cells. Description: Proteoglycan synthesis in micromass cultures, 5 days. In kind it is cell-based. To be noted: 5 day micromass; for proteoglycan synthesis / chondrogenic differentiation: dextran polysulfate 1-20 micrograms/mL, FIG. 19B; for proteoglycan synthesis (35SO4 incorporation into PGs): hyaluronan in place of PPS, FIG. 19A. The text has this:
FIG. 17. Bar graphs showing the concentration dependent effects of PPS on proteoglycan synthesis by human progenitor cells in micromass cultures for 5 days. Data is presented as 35S-GAG radioactivity and as a percentage of control taken as 100%. * P<0.05 relative to control.
FIG. 19. Bar graphs showing the concentration dependent effects of (A) Hyaluronan (Supartz™) and (B) Dextran Polysulfate on proteoglycan synthesis by human progenitor cells in micromass cultures for 5 days. Data is presented as ^35S-GAG radioactivity and as a percentage of control, taken as 100% or as DPM/ug DNA. * P<0.05 relative to control.
The technique used was based on that described by (Denker A E, Haas A R, Nicoll S B and Tuan R S. Chondrogenic differentiation of murine C3H10T1/2 multipotential progenitor cells: I. Stimulation by bone morphogenetic protein-2 in high density micromass cultures. Differentiation (1999); 64: 67-76). Briefly murine Progenitor cells (cell lines C3H10T1/2 or ATDC5) purchased from RIKEN Cell Bank (Tsukuba, Japan) or human immunoselected Stro-1+ Progenitor cells (Mesoblast Ltd, Melbourne, Australia) Ten microlitres (10 μl) of a suspension of the progenitor cells (1×10^7 cells/ml in Ham's F12 medium+10% FBS) were applied to individual wells of a 24-well plates. After incubatation at 37° C. in a humidified atmosphere of 5% CO2/95% air for 2-3 hours, 900 μl of Ham's F12 medium (10% FBS) and 100 μl of PPS solution in the same medium were added slowly into the wells to afford final concentrations of PPS in each of 0, 0.1, 0.5, 1.0, 2.5, 5.0, 10.0, 20.0 μg/ml alone or in combination with rhNC4 (0, 0.1, 0.5, 1.0, 2.5, 5.0, 10.0, 25.0 μg/ml). Each drug concentration was repeated in triplicate. The cells were maintained in culture for up to 10 days. The medium with/without drugs was changed every 3 days but 24 hours before termination of the experiment 80 μl of 50 μCi/ml ^35S-H2SO4 was added to achieve a final ^35SO4 concentration of 5 μCi/ml. The following day, the cells in one of the plates were trypsinized with 150 μl/well of 2.5% trypsin and separated from the medium by centrifugation at 800 g for 10 minutes, washed with 500 μl of 1×PBS and stored in liquid nitrogen for RNA and/or DNA extraction and analysis. Media and supernatants were combined in one tube for each concentration of PPS used. To the tubes was added, 200 μl of 5× Papain solution [2.5 mg/ml Papain, 7.9 mg/ml L-Cysteine in Papain buffer (0.1 M NaAC, 5 mM EDTA, pH6.0)] and the solution incubated at 65° C. for 2 hours. After papain digestion, Four aliquots of 200 μl of digested solution were transferred to a 96-well plate (200 μl/well). The ^35S-GAG released by the digestion step were separated from the free ^35SO4 by adding 20 μl 5% CPC and 10 μl 1 mg/ml CSA with gentle shaking at 300 rpm RT for 20-30 min to precipitate the ^35S-GAG-CPC complexes. The precipitates were collected by filtered through glass fibre filters using a cell harvester. The filters were then air-dried and discs punched to scintillation vials. 3 ml/vial scintillation cocktail liquid was added and vortexed for 30-45 sec. The radioactivity of ^35S—SO4 incorporated the ^35S-GAG-CPC complexes was measured by scintillation counting.
Data is presented as 35S-GAG radioactivity and as a percentage of control taken as 100%. * P<0.05 relative to control.
Similar experiments were undertaken using Hyaluronic acid (SuperArtz (SKK, Tokyo, Japan)) and Dextran polysulfate (MW=5000) (Sigma, Sydney, Australia) in place of PPS. […] Data is presented as 35S-GAG radioactivity and as a percentage of control taken as 100% or as DPM/ug DNA. * P<0.05 relative to control.

Another assay concerns Murine ATDC5 cell line. The assay is described as follows: Proteoglycan biosynthesis (35S-GAG) in pellet cultures. The format is cell-based. The conditions noted are these: FIG. 14; for chondrogenic effect / proteoglycan synthesis: Heparin 1.25-20 ug/mL, 6 day pellet culture. An excerpt:
FIG. 12. A bar graph of the concentration dependent effects of Pentosan Polysulfate (PPS), on the biosynthesis of Proteoglycans (PGs) as determined by the incorporation of radioactively labelled sulfate into the sulfated glycosaminoglycans (^35S-GAG) of PGs in 6 day pellet cultures of murine progenitor cells (ADTC-5). *=p<0.05 relative to control.
FIG. 22. A bar graph of the concentration dependent effects of rhNC4 (batch PBA-1202P) expressed by K. lactis, in the absence (maintenance media, MM) and presence of insulin (10 micrograms/mL) (differentiation media, DM), on the biosynthesis of Proteoglycans PGs) in pellet cultures of ATDC5 cells. Data is shown as the % change relative to controls taken to be 100%.
Murine Progenitor cells (cell lines C3H10T1/2 or ATDC5) purchased from RIKEN Cell Bank (Tsukuba, Japan) or human immunoselected Stro-1+ Progenitor cells (Mesoblast Ltd, Melbourne, Australia) were seeded in 2 ml screw-capped sterile centrifuge tubes and the total volume made-up to 1 ml with DMEM-High glucose medium containing 10% FBS. Progenitor cells were then centrifuged at 500 g for 10 min in a swing-out rotor at room temperature. The screw caps were loosened and the tubes placed in an incubator at 37° C., in a 5% CO2/95% air moist atmosphere. The pellets generally formed within 24 hours. Medium was changed daily in the first two days, then once every 2-3 days thereafter. On day 5 the medium was removed and to each tube was added 1 ml with DMEM-High glucose medium containing 10% FBS, 5.0 μCi/ml ^35S-H2SO4 and various concentrations of PPS (0, 0.1, 0.5, 1.0, 2.5, 5.0, 10.0, 20.0, μg/ml) (FIG. 12-15) or rhNC4 (0, 0.1, 0.5, 1.0, 2.0 μg/ml) (FIG. 22). Triplicate cultures were used for all concentration of drugs. The screw caps were loosened and the tubes placed in an incubator at 37° C., in a 5% CO2/95% moist air atmosphere […]. On day 6, 200 μl of stock papain solution [2.5 mg/ml papain, 7.9 mg/ml L-Cystein in papain buffer (0.1 M NaAC, 5 mM EDTA, pH6.0)] was added to each tube. The tubes were tightly capped and incubated at 65° C. for 2 hours. After papain digestion, 4 replicates of 200 μl of papain digested solution were separately transferred to a 96-well micro-titre plate (200 μl/well). The remaining solution was used for the DNA fluorometric assays which were undertaken in triplicate as described above. Biosynthesis of ^35S-GAGs was determined as described for the monolayer cultures and the results expressed as ^35-S-GAGs/μg DNA.
Data is shown as the % of controls taken to be 100%.

Assay [1] has as its system Primary human progenitor cells. Description: Progenitor cell proliferation, WST-1 assay. The format is cell-based. The conditions noted are these: HA alone; day 3 and day 5 cultures; FIG. 20. On the procedure:
FIG. 4. The Effects of Pentosan Polysulfate (PPS) on Human Progenitor cell Proliferation. Primary human progenitor cells were cultured in 24 well plates in growth media supplemented with PPS at the indicated concentrations. At various time intervals (day 1, 3, 6), the growth media was removed and replaced with phenol red free media containing the tetrazolium salt WST-1 for 2 hours at 37° C./5% CO2. WST-1 is cleaved by mitochondrial dehydrogenase in viable cells to produce a formazan dye that can be detected using an ELISA plate reader at a wavelength of 450 nm. Absorbance at 450 nm for each time point is shown for all concentrations of PPS.
FIG. 20. […] At various time intervals (day 3 & 5), the growth media was removed and replaced with phenol red free media containing the tetrazolium salt WST-1 for 2 hours at 37° C./5% CO2. Absorbance at 450 nm for each time point is shown for all concentrations of PPS and HA.
Primary human progenitor cells were cultured in 24 well plates in growth media supplemented with PPS at the indicated concentrations. At various time intervals (day 1, 3, 6), the growth media was removed and replaced with phenol red free media containing the tetrazolium salt WST-1 for 2 hours at 37° C./5% CO2. WST-1 is cleaved by mitochondrial dehydrogenase in viable cells to produce a formazan dye that can be detected using an ELISA plate reader at a wavelength of 450 nm. Absorbance at 450 nm for each time point is shown for all concentrations of PPS.
In general terms: Formazan colour is commonly taken as a measure of viable cells.

Entries after “also recorded” stand apart in the source; their conditions may differ.

As to Insulin, the “day on which cultures reached confluence” value with ATDC5 cell was 6 days.
In the case of Dextran polysulfate, the “proteoglycan synthesis / chondrogenic differentiation” value with human progenitor cells is listed as “downregulate or repress differentiation”; in the assay on human progenitor cells (listed as Dextran Sulfate (DS)) it was “inhibited PG synthesis”; in the assay on human progenitor cells (listed as dextran sulfate) it was “concentration dependent reduction in the production of proteoglycans”.
Turning to Heparin, the “chondrogenic effect / proteoglycan synthesis” value in the assay with Murine ATDC5 cell line is given as “does not exhibit a chondrogenic effect; also recorded: failed to significantly stimulate proteoglycan synthesis”; in the assay on Murine ATDC5 cell line (listed as heparin), “suppressing chondrogenesis”. Moreover, the proteoglycan synthesis result is recorded as “little activity” in the assay on Murine ATDC5 cell line (Heparin 2.5 ugrams/mL, pellet culture) and “may cause inhibition” with Murine ATDC5 cell line (Heparin at higher concentrations (above 2.5 ugrams/mL)).
Take Hyaluronan [HA]: the “progenitor cell proliferation (WST-1)” value in assay [1] was “absence of any significant stimulatory effect”. The figures for the “proteoglycan synthesis (35SO4 incorporation into PGs)” value with human progenitor cells and in the assay on human progenitor cells (listed as hyaluronan (HA)) were “appeared to increase synthesis of proteoglycans but not strongly” and “low level of ^35SO4 incorporation into PGs”, respectively.
